Data published in patent publication EP2272817A1, “PAI-1 INHIBITOR” (Institute of Medicinal Molecular Design, Inc., priority 2008, dated 2009).

Legend:
[1] = biological target: T1, recombinant human PAI-1 (Homo sapiens, UniProt P05121); assay: biochemical; settings: for inhibition at 5 µM: read-out: Inhibition Rate of PAI-1 Activity (%), Compound Concentration 5µM; for inhibition at 10 µM: read-out: Inhibition Rate of PAI-1 Activity (%), Compound Concentration 10µM; for inhibition at 25 µM: read-out: Inhibition Rate of PAI-1 Activity (%), Compound Concentration 25µM
Experimental: To this solution, 6 µl of 80 nM recombinant human PAI-1 (Molecular Innovations, Inc.) solution prepared with Tris buffer was added, and the plate was incubated for 5 minutes at room temperature. Furthermore, 30 µl of 800 IU/ml two-chain tPA (Activity Standard; American diagnostica, inc.) prepared with Tris buffer was added, and the mixed solution was incubated for 15 minutes at room temperature. Then, 30 µl of 400 µM fluorogenic substrate (Pyr-Gly-Arg-MCA; Peptide Institute, Inc.) for tPA prepared with Tris buffer was added and reacted for 30 minutes at room temperature.
50 mM Tris, 150 mM NaCl, 10 µg/ml BSA, 0.01 % Tween80 (SIGMA-ALDRICH Corporation)

[2] = biological target: T2, recombinant rat PAI-1 (Rattus norvegicus, UniProt P20961); assay: biochemical; settings: read-out: Inhibition Rate of PAI-1 Activity (%)
T2 sequence (P20961 24-402): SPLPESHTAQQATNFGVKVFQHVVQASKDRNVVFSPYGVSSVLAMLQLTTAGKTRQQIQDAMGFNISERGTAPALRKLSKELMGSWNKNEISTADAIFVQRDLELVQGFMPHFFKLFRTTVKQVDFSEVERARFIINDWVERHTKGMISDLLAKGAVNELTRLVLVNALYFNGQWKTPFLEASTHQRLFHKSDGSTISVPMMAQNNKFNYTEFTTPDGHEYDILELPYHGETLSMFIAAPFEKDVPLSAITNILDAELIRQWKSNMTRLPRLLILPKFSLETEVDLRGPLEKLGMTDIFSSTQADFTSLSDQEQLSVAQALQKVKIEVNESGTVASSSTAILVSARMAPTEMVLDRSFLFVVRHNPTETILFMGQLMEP

[3] = biological target: T1, recombinant human PAI-1; assay: Test Example 2: Human PAI-1 Inhibitory Activity (pH 7.4 HEPES buffer, 10 minutes incubation with two-chain tPA); format: biochemical; set-up: purchased Molecular Innovations, Inc; settings: read-out: Inhibition Rate of PAI-1 Activity (%)
Experimental: 0.1 M HEPES, 0.1 M NaCl. 1 mM EDTA. 0.1 % Polyethylene glycol 8,000 (Hampton Research Corporation),
2 mM Dimethyldecylphoshine oxide [Apo-10] (Fluka Corporation)

[4] = biological target: T1, recombinant human PAI-1; assay: Test Example 4: Human PAI-1 Inhibitory Activity (amount of PAI-1 bound to plate-coated one-chain tPA, ELISA); format: biochemical; set-up: purchased Molecular Innovations, Inc; settings: human PAI-1 bound to tPA, read-out: Inhibition Rate of PAI-1 Activity (%); for inhibition at 0.3 µM: Compound Concentration 0.3µM; for inhibition at 1 µM: Compound Concentration 1µM; for inhibition at 3 µM: Compound Concentration 3µM
Experimental: 100 µl of tPA solution, where one-chain recombinant tPA (hereinafter reffered to as tPA; American diagnostica, inc.) had been diluted with Buffer A to acheive a concentration of 10 µg/ml, was added to each well of a 96-well plate (Nunc Maxisorp), and the plate was incubated for one night at 4 °C to be coated with tPA. Then, after suction of tPA solution from the 96-well plate, the plate was rinsed successively with Buffer A and Buffer B. To Buffer B, solutions of the compound according to the present invention dissolved with DMSO (final DMSO concentration: 0.2 %) and recombinant human PAI-1 (Molecular Innovations, Inc.) were added. The mixtures were blended so that the final concentrations would be 0.1 to 3.0 µM and 50 ng/ml respectively, and were incubated for 15 minutes on ice. These mixed solutions were added to the rinsed 96-well plate at 100 µl/well, and incubated for 60 minutes at room temperature. To prepare a calibration curve, PAI-1 solutions without the compound according to the present invention (solutions where the final concentrations being 100, 50, 25, 12.5, 6.25, 3.13, or 1.56 ng/ml PAI-1) were added at 100 µl/well, and the plate was incubated for 60 minutes at room temperature, as standard.
After incubation, the reaction mixture was removed by suction, and each well was rinsed with Wash Buffer. Next, anti-human PAI-1 monoclonal antibody (PROGEN Inc.) diluted with Buffer C to be 3.0 µg/ml was added to the 96-well plate at 100 µl/well, and the plate was incubated for 1 hour at room temperature. After rinsing each well with Wash Buffer, alkaline phosphatase-labeled goat anti-mouse IgG (H+L) (Jackson ImmunoResearch, Inc.) diluted with Buffer D to be 0.12 µg/ml was added at 100 µl/well, and the plate was incubated for 1 hour at room temperature. After rinsing each well with Wash Buffer, 1.0 mg/ml p-Nitrophenyl Phosphate (SIGMA) was added to the 96-well plate at 100 µl/well to start the reaction. After 30 to 60 minutes, 25 µl of 0.5 N NaOH was added to stop the reaction, and the absorbance was measured at 405 nm using a multiplate reader (GENios; TECAN G.M.B.H.).
Based on the calibration curve prepared from the standard wells, amounts of PAI-1 bound to tPA in the wells that had been treated with the compound according to the present invention were calculated, and the PAI-1 inhibition rates by the compounds according to the present invention were obtained by the following equation. [API-1InhibitionRate(%)] = [1-(amountofPAI-1boundtotPaonthewellbytreatmentwiththecompondaccordingtothepresentinvention)/(amountofPAI-1boundtotPAonthewellbytreatmentwithPAI-1solutionnotincledingthecompondaccordingtotheinvention(solution having the final concentration of 50 nb/ml PAI-1)] × 100 [formula] • <Composition of Buffer A> 0.1 M Tris-HCl, 150 mM NaCl, pH 7.7 • <Composition of Buffer B> 50 mM sodium phosphate, 0.1 M NaCl, 1 mM EDTA, pH 6.6 • <Composition of Buffer C> 50 mM sodium phosphate, 100 mM NaCl, pH 7.4 • <Composition of Buffer D> 0.01 M Tris-HCl, 0.25 M NaCl, pH 8.0 • <Compositon of Wash Buffer> 0.05 % Tween 20, 0.1 % BSA in Buffer A • <Composition of p-Nitrophenyl Phosphate solution> 1 M Diethanolamine 0.5 mM MgCl2, p-Nitrophenyl phosphate, pH 9.8

T1 sequence (P05121 24-402): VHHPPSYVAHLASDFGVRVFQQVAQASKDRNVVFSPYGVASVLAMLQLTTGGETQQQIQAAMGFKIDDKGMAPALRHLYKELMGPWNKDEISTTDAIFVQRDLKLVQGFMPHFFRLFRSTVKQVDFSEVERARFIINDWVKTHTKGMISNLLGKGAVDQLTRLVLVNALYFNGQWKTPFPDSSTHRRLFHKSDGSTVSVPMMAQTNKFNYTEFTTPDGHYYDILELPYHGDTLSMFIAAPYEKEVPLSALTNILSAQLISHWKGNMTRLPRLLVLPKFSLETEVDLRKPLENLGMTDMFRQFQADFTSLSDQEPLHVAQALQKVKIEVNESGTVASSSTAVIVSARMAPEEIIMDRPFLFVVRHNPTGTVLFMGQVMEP

Structure (SMILES) | inhibition at 5 µM [1] | inhibition at 10 µM [1] | inhibition at 25 µM [1] | inhibition at 0.3 µM [2] | inhibition at 1 µM [2] | inhibition at 3 µM [2] | inhibition at 10 µM [2] | inhibition at 0.1 µM [3] | inhibition at 0.3 µM [3] | inhibition at 1 µM [3] | inhibition at 3 µM [3] | inhibition at 0.3 µM [4] | inhibition at 1 µM [4] | inhibition at 3 µM [4]
CC(C)(Oc1cccc(-c2ccc(OC(F)(F)F)cc2)c1OCc1ccc(C(C)(C)C)cc1)C(=O)O [Compound 118] | 56% | 82% | 93% | 0% | 16% | 77% | 93% | 0% | 6% | 49% | > 99% | 0% | 4% | 46%
CCCCC(c1ccc(C(C)(C)C)cc1)N(C(=O)C(=O)O)c1ccc(-c2ccc(OC(F)(F)F)cc2)cc1 (stereo not shown) [Compound 221] | 80% | 86% | – | 10% | 37% | 89% | – | 0% | 6% | 55% | > 99% | 0% | 13% | 38%
Cc1ccc(N(Cc2ccc(C(C)(C)C)cc2)C(=O)C(=O)O)cc1-c1ccc(OC(F)(F)F)cc1 [Compound 176] | 65% | 94% | 91% | 0% | 23% | 71% | > 99% | 0% | 10% | 21% | 96% | 9% | 9% | 29%
CCC(CC)Oc1ccc(-c2ccc(OC(F)(F)F)cc2)cc1N(Cc1ccc(C(C)(C)C)cc1)C(=O)C(=O)O [Compound 199] | 83% | 89% | – | 0% | 35% | 97% | > 99% | 9% | 13% | 64% | > 99% | 18% | 41% | 73%
CC(C)(Oc1cc(-c2ccc(OC(F)(F)F)cc2)ccc1OCc1ccc(C(C)(C)C)cc1)C(=O)O [Compound 106] | 50% | 85% | 93% | 0% | 16% | 85% | > 99% | 0% | 8% | 39% | 97% | 0% | 7% | 17%
